Here are results for twelve compounds from patent US6545033B1, “Fused 1-(2,6-dichloro-4-trifluoromethylphenyl)-pyrazoles, the synthesis thereof and the use thereof as pesticides” (3-Dimensional Pharmaceuticals, Inc., priority 1999, dated 2003).

Assay [1] addresses Mouse Brain GABA Receptors. Nature of the assay: In vitro assay of binding to mouse brain GABA receptors (3H-EBOB displacement, mouse brain membranes). The note with it: displacement of 5.2 nM 3H-EBOB, about 45 min at about 24° C. As for the experimental part:
Mouse brains were obtained from carbon dioxide-asphyxiated Swiss-Webster mice, washed with phosphate-buffered saline, and used either fresh or after storage at −80° C. for up to 10 months. Unless specified, all preparation steps were performed at 0-4° C. For each preparation, 20 brains were suspended in about 40 mL of 0.32 M sucrose and homogenized for about 2 minutes, using a Tissumizer™ homogenizer equipped with a SDT-100EN probe (available from Tekmar-Dohrmann, Cincinnati, Ohio) running at 50% of its maximum speed. The extract was centrifuged for about 5 min at about 1000×g to pellet intact brain tissue. The supernatant was retained and the pellet washed with an additional 40 mL of 0.32 M sucrose and centrifuged at 1000×g for about 5 minutes. The 1000×g supernatants were combined and centrifuged at about 10,000×g for about 20 min to pellet membranes. The 10,000×g supernatant was discarded and the pellet was resuspended in about 20 mL of water containing 1 mM EDTA. The sample was dialyzed two times for about 3 hours each against about 3 L of water. The sample was then centrifuged at about 25,000×g for about 30 min to pellet the membranes. After centrifugation, the supernatant was discarded and the wet pellet recovered. The protein concentration of the pellet was determined by the Bio-Rad Protein Assay (available from Bio-Rad Laboratories, Hercules, Calif.) using bovine serum albumin as a standard. The membranes were aliquoted and stored at −80° C. for up to 6 months before use.
Mouse brain membranes were prepared as described above from dissected mouse brains. Test compounds were dissolved in dimethylsulfoxide (DMSO) at concentrations ranging from about 2 nM to about 100 mM. About 1 μL of a dissolved test compound was dispensed into a well of a 96-well polystyrene plate. About 100 μL of ice cold assay buffer (10 mM phosphate, 300 mM NaCl, pH 7.5) containing 5.2 nM 4′-Ethynyl-4-n-[2,3-^3H2]propylbicycloorthobenzoate (^3H-EBOB, 38 Ci/mmol, available from NEN Life Science Products, Boston, Mass.) was added to the well, followed by about 100 μL of ice cold assay buffer containing about 0.25-0.5 mg/mL mouse brain membranes. Control wells were prepared the same way except that the mouse brain membranes were omitted from the “negative” wells, and the test compounds were omitted from the “positive” wells. The samples were incubated for about 45 min at about 24° C. and then filtered on a 0.1% (w/v) polyethylenimine-soaked glass fiber Filtermat A (available from EG&G Wallac Inc., Gaithersburg, Md.) followed by four 100 mL rinses of cold assay buffer using a Harvester 96® cell harvester (available from Tomtec, Orange, Conn.). The filtermat was air dried and radioactivity bound to the filtermat was detected with either a 1450 MicroBeta® Trilux scintillation counter (available from EG&G Wallac Inc.) or a Topcount NXT™ scintillation counter (available from Packard Instrument Co., Meriden, Conn.) using standard methods.
Specific binding was considered to be the difference between total ^3H bound to the mouse brain membranes in the absence of any inhibitors and nonspecific ^3H bound to the mouse brain membranes upon the addition of 5 μM unlabeled EBOB. The average radioactivity contained in the “negative” wells was subtracted from each of the assay wells. […] Compounds that displaced ^3H-EBOB specifically bound to the mouse brain membranes were tested at 24-48 different final concentrations, varying from about 1 nM to about 125 μM, in order to determine the concentration at which 50% of the maximum inhibition due to the addition of that compound was observed (IC50). […]

The target in assay [2] is T1, Housefly GABA receptors (Musca domestica, UniProt Q75NA5).
T1 sequence (Q75NA5 30-576): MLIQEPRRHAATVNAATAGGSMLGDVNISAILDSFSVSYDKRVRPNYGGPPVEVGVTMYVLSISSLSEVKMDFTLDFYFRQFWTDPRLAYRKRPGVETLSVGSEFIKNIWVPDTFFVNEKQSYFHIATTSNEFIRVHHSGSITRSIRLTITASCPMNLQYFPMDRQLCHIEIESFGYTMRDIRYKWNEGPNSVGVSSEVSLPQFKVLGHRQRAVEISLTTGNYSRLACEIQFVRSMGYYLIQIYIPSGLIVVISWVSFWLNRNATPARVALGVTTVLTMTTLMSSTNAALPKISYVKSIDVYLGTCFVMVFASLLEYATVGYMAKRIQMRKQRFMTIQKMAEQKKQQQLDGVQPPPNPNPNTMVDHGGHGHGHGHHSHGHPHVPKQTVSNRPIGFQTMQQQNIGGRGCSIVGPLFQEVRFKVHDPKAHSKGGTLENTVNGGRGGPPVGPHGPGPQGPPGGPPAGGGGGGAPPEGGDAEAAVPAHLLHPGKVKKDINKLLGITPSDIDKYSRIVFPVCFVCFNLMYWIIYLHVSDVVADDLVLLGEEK
Description: In vitro assay of binding to housefly GABA receptors (3H-EBOB displacement, housefly neuronal membranes). The settings on record: for Compounds with the most activity (housefly 3H-EBOB binding): housefly neuronal membranes. The protocol:
Newly emerged houseflies (Musca domestica, available from Rincon-Vitova Insectaries, Inc., Ventura, Calif.) were sedated with carbon dioxide gas, collected in 50 mL polypropylene conical tubes, and immediately frozen by submersion in liquid nitrogen. Unless specified, all of the following work was performed at 0-4° C. After removal from liquid nitrogen, the tubes of frozen houseflies were shaken vigorously by hand to decapitate the houseflies. […] Contaminating wings were removed by holding a vacuum nozzle approximately 4 cm above the heads, and contaminating legs were separated from the heads by passage through a #15 mesh screen. All remaining debris were removed from the pool of heads using forceps. The purified heads were collected in 50 mL polypropylene conical tubes and stored in liquid nitrogen until processed further.
About 13 g of purified housefly heads were suspended in about 65 mL of 10% sucrose buffer (10% sucrose (w/w) in 10 mM Tris, pH 7.5). The heads were homogenized for about 1 minute, using a Tissumizer™ homogenizer equipped with a SDT-100EN probe (available from Tekmar-Dohrmann, Cincinnati, Ohio) running at 70% of its maximum speed. The extract was further homogenized by about 5 passes through a 40 mL Dounce tissue grinder. The extract was then centrifuged at about 500×g for about 5 minutes to pellet large debris. The supernatant was collected; the pellet was washed with an additional 65 mL of 10% sucrose buffer and centrifuged at 500×g for about 5 minutes. The second supernatant was collected and combined with the first supernatant, and the pool was filtered through a 100μ CellMicroSieve™ mesh to remove residual debris (available from BioDesign of New York, Carmel, N.Y.).
Neuronal membranes containing active GABA receptors were collected via sucrose density centrifugation by the following method. About 8 mL of 35% sucrose buffer (35% sucrose (w/w) in 10 mM Tris, pH 7.5), were dispensed into each of six 38 mL ultracentrifuge tubes. These layers were overlaid with about 8 mL of 20% sucrose buffer (20% sucrose (w/w) in 10 mM Tris, pH 7.5), and finally overlaid with about 20 mL of filtered extract supernatant. The tubes were centrifuged at about 120,000×g for about 100 min at 4° C. After centrifugation, the 10% sucrose layer and most of the 20% sucrose layer were removed by aspiration. The membranes at the interface of the 20% sucrose and 35% sucrose layers were collected, pooled, diluted with 10% sucrose buffer, and centrifuged at about 120,000×g for about 40 min at 4° C. After centrifugation, the supernatant was discarded, and the pellets resuspended in about 6.5 mL of assay buffer (10 mM phosphate, 300 mM NaCl, pH 7.5) using a 10 mL Potter-Elvehjem tissue grinder with a Teflon® pestle. Protein concentration was determined by the Bio-Rad Protein Assay (available from Bio-Rad Laboratories, Hercules, Calif.) using bovine serum albumin as a standard. The membranes were aliquoted and stored in liquid nitrogen for up to 2 months before use.
Housefly neuronal membranes were prepared as described above from housefly heads. Test compounds were dissolved in dimethylsulfoxide (DMSO) at concentrations ranging from about 2 nM to about 100 mM. About 1 μL of a dissolved test compound was dispensed into a well of a 96-well polystyrene plate. About 100 μL of ice cold assay buffer (10 mM phosphate, 300 mM NaCl, pH 7.5) containing 5.2 nM 4′-Ethynyl-4-n-[2,3-^3H2]propylbicycloorthobenzoate (^3H-EBOB, 38 Ci/mmol, available from NEN Life Science Products, Boston, Mass.) was added to the well, followed by about 100 μL of ice cold assay buffer containing about 0.5-1.0 mg/mL housefly neuronal membranes. Control wells were prepared the same way except that the housefly neuronal membranes were omitted from the “negative” wells, and the test compounds were omitted from the “positive” wells. […]

Assay [3] concerns cat fleas (Ctenocephalides felis), CO Fleas. Description: In vivo cat flea contact assay, CO fleas. The note with it: Ctenocephalides felis, topical; contact with treated filter disk in vial, about 24-30 hours; mM = concentration of the DMSO solution, about 1 μL applied; read-out: LD50 (mM), CO Fleas. As for the experimental part:
This example describes an in vivo assay to screen compounds for their ability to kill cat fleas via contact.
Test compounds were dissolved in dimethylsulfoxide (DMSO) at concentrations ranging from about 0.05 mM to about 100 mM. About 1 μL of dissolved test compound was dispensed onto a 6 mm (diameter) GF/C filter disk (filter material available from Whatman Inc., Clifton, N.J.) in the bottom of a 4 mL screw-top glass vial and allowed to air dry 24-48 hours. Positive control vials were prepared in the same manner except that no test compounds were dissolved in the DMSO. About 20 newly emerged cat fleas (Ctenocephalides felis) were sedated by refrigeration at 0-4° C. and transferred to each vial. Each vial was sealed with a thin, perforated Teflon™ septum secured by an open top screw cap and held vertically in the dark. After about 24-30 hours, the healthy, moribund, and dead cat fleas in each vial were counted. The percentage of dead cat fleas in each vial was then calculated using the formula M=100(D−(FC/100))/(F−(FC/100)), in which M is the percentage of dead cat fleas due to the addition of the test compound, D is the number of dead cat fleas in the test vial, F is the total number of cat fleas in the test vial, and C is the percentage of dead cat fleas in the control vials.

In turn, `CC1(C)CCc2cn(-c3c(Cl)cc(C(F)(F)F)cc3Cl)nc21` [Compound 12, 2-[2,6-Dichloro-4-(trifluoromethyl)phenyl]-6,6-dimethyl-2,4,5,6-tetrahydrocyclopenta[c]pyrazole] had an IC50 in assay [1] of 30000 nM. Besides, in assay [2], the “Compounds with the most activity (housefly 3H-EBOB binding)” value (from here on “Compounds with the most activity”) is listed as “most activity”.

With `CC1CCc2nn(-c3c(Cl)cc(C(F)(F)F)cc3Cl)cc21` (racemic) [Compound 42, 2-[2,6-Dichloro-4-(trifluoromethyl)phenyl]-4-methyl-2,4,5,6-tetrahydrocyclopenta[c]pyrazole], in assay [2], the “Compounds with the most activity” value is given as “most activity”.

As for `FC(F)(F)c1cc(Cl)c(-n2cc3c(n2)CCSC3)c(Cl)c1` [Compound 10, 2-[2,6-Dichloro-4-(trifluoromethyl)phenyl]-2H,4H,6H,7H-thiano[4,3-c]pyrazole], in assay [1], the 50% inhibitory concentration (IC50) came out at 3800 nM. In assay [2], the “Compounds with the most activity” value is “most activity”.

`FC(F)(F)c1cc(Cl)c(-n2cc3c(n2)CC=C3)c(Cl)c1` [Compound 63, 2-[2,6-Dichloro-4-(trifluoromethyl)phenyl]-6-hydrocyclopenta[1,2-c]pyrazole]: in assay [1], the IC50 is 1000 nM.

As to `CC1(O)c2cn(-c3c(Cl)cc(C(F)(F)F)cc3Cl)nc2CC1(F)F` (centres unmarked) [Compound 93, 2-[2,6-Dichloro-4-(trifluoromethyl)phenyl]-5,5-difluoro-4-methyl-2,4,5,6-tetrahydrocyclopenta[c]pyrazol-4-ol], the IC50 amounted to 2300 nM in assay [1] and 100 nM in assay [2] (displacement of 5.2 nM 3H-EBOB, housefly head neuronal membranes, about 45 min at about 24° C., read-out: IC50 (nM), Fly Head).

Turning to `FC1Cc2nn(-c3c(Cl)cc(C(F)(F)F)cc3Cl)cc2C1(F)F` (centres unmarked) [Compound 56, 2-[2,6-Dichloro-4-(trifluoromethyl)phenyl]-4,4,5-trifluoro-2,4,5,6-tetrahydrocyclopenta[c]pyrazole], the IC50 in assay [1] stood at 1000 nM. Further, the LC50 in assay [3] was determined as 1 mM.

On to `Nc1c2c(nn1-c1c(Cl)cc(C(F)(F)F)cc1Cl)CSC2` [Compound 1, 2-[2,6-Dichloro-4-(trifluoromethyl)phenyl]-4,6-dihydrothieno-[3,4-c]pyrazole-3-ylamine], for which the “Compounds with the most activity” value in assay [2] is “most activity”.

In assay [1], `CSC1CCc2nn(-c3c(Cl)cc(C(F)(F)F)cc3Cl)cc21` (centres unmarked) [Compound 68, 2-[2,6-Dichloro-4-(trifluoromethyl)phenyl]-4-methylthio-2,4,5,6-tetrahydrocyclopenta[c]pyrazole] yielded a half-maximal inhibitory concentration (IC50) of 1000 nM.

The compound `FC(F)(F)c1cc(Cl)c(-n2cc3c(n2)CCC3(F)F)c(Cl)c1` [Compound 61, 2-[2,6-dichloro-4-(trifluoromethyl)phenyl]-4,4-difluoro-2,4,5,6-tetrahydrocyclopenta[c]pyrazole] came in with an IC50 in assay [1] of 1000 nM. Moreover, the LC50 in assay [3] was 5 mM.

In turn, `O=S(=O)(C1CCc2nn(-c3c(Cl)cc(C(F)(F)F)cc3Cl)cc21)C(F)(F)F` (centres unmarked) [Compound 67] returned an IC50 in assay [1] of 25000 nM.

Compound `O=S(=O)(Oc1c2c(nn1-c1c(Cl)cc(C(F)(F)F)cc1Cl)CSC2)c1ccccc1` [Compound 6, 2-[2,6-Dichloro-4-(trifluoromethyl)phenyl]-4,6-dihydrothieno-[3,4-c]pyrazole-3-yl benzenesulfonate] displayed an IC50 in assay [1] of 730 nM.

As to `FC(F)(F)c1cc(Cl)c(-n2cc3sccc3n2)c(Cl)c1` [Compound 22, 2-[2,6-Dichloro-4-(trifluoromethyl)phenyl]-2H-thieno[3,2-c]pyrazole], the “Compounds with the most activity” value in assay [2] is given as “most activity”.

By IC50 is commonly meant the concentration that inhibits the measured activity by half.
